{"source": "patent US20150352114A1", "about": "“MITOTIC KINESIN Eg5 INHIBITING ANTICANCER AGENTS” (THE CLEVELAND CLINIC FOUNDATION, priority 2014, published 2015)", "key": {"[1]": {"test_system": "orthotopic tumor from luciferase-expressing 3691 GSCs", "assay": "Orthotopic GBM xenograft model with systemic ispinesib", "format": "in vivo, mice"}, "matched GSCs and NSTCs [2]": {"test_system": "matched GSCs and NSTCs", "assay": "SubG1 (apoptotic) population by flow cytometry for propidium iodide", "format": "cell-based, human", "conditions": "3 nM; four days; three xenograft patient specimens", "method": "(§1) The half maximal effective concentration of ispinesib for acutely dissociated and MACS sorted matched GSCs and NSTCs was determined by plating, in triplicate, 1,000 cells per well of a 96 well plate pre-coated with GelTrex in growth-factor free Neuralbasal media. The next day, cells were exposed to 2-fold increasing concentrations of ispinesib spanning from 0 to 32 nM. Viability was measured at 72 hours using CellTiter-Glo ATP-based assay (Promega, Madison, Wis.) read on a luminometer (Perkin-Elmer, Waltham, Mass.). For long-term viability assays, 500 cells per well were plated in triplicate into 96-well plates as above. The next day, cells were exposed to 3 nM ispinesib or vehicle (DMSO) and viability was measured daily for 5 days using CellTiter-Glo. Day 0 reading were taken immediately after addition of drug or vehicle. SubG1 for GSCs and NSTCs was determined by flow cytometry for propidium iodide and gated as the events below the 2N G1 peak of the resulting histogram. Analysis was done following treatment of 100,000 cells with vehicle or 3 nM ispinesib. Cells were fixed at Day 0 through Day 4 in 100% cold ethanol and simultaneously processed for flow analysis with 20,000 events analyzed per condition."}, "matched GSCs and NSTCs [3]": {"test_system": "matched GSCs and NSTCs", "assay": "Long-term viability assay, CellTiter-Glo, 5 days", "format": "cell-based, human", "conditions": "3 nM; two matched GSCs and NSTCs", "method": "as §1"}, "GFP-positive tumor cells": {"test_system": "GFP-positive tumor cells", "assay": "Brain slice culture time-lapse cell migration, PDGF-IRES-GFP retrovirus glioma model", "format": "cell-based, rat", "conditions": "200 nM", "method": "The PDGF-IRES-GFP retrovirus was produced according to well known methods previously described. P3 neonatal Sprague-Dawley rats were anesthetized using hypothermia. Briefly, each pup was carefully wrapped in several layers of gauze and then covered with ice. After 12 minutes, the rat pup's head was placed in a DKI 963 Stereotaxic Alignment Instrument (David Kopf Instruments, Tujunga, Calif.). The bregma was identified and using a sterile 18 gauge needle a small hole was poked into the skull that was 1 mm rostral and 2 mm to the right of the bregma. A 27-gauge Hamilton microsyringe (Reno, Nev.) was then inserted to a depth of 1.5 mm, and 2 ul of virus was injected at a rate of 0.2 ul/min.\nAt days P8, P9, and P10, PDGF-IRES-GFP injected rat pups were anesthetized with Ketamine/Xylazine cocktail and decapitated. Brains were isolated and 300-um coronal sections were taken in the vicinity of the injection site using a McIlwain tissue chopper. The slices were transferred onto a porous 0.4-um culture plate insert (Millipore, Billerica, Mass.) and then placed into Glass Bottom 6 well plates (P06G-0-20-F, MatTek Corp, Ashland, Mass.) containing slice culture media (MEM, 2 mM L-glutamine, […], 10% Glucose, Its (Sigma, 12521) and Anti-Anti (Gibco, 15240-062)). Microglial and perivascular cells of the brain sections were stained with Isolectin GS-IB4, Alexa fluor 594 conjugate (Invitrogen) for 30 minutes at 37° C., washed three times with PBS and returned to a humidified atmosphere at 5% (CO2). Images of the brain slices for time-lapse microscopy were acquired with a Perkin Elmer UltraView Spinning Disk microscope on a Leica DMI 6000 with a 10× Plan Apo 0.4 NA objective lens. During imaging, the brain slices were placed in a stage mounted 37° C. incubator where 60% humidity and 5% CO2 was maintained. The emission range for 488 and 561 is […] and 580-650, respectively and acquisition and analysis were performed using Velocity software. The migratory path of the individual cells was then tracked every 7 minutes by marking the position of the cell body at consecutive time points.\nFluorescence, time-lapse image stacks consisting of ˜150 frames (7 minute intervals) were imported into Image-Pro Plus (v7.0, Media Cybernetics, Silver Spring, Md.). Gliomal cell tracking for each treatment group (55 cells/group) was performed in a semi-automated fashion using a combination of Fourier correlation and user-guided input. Cells selected for tracking were chosen randomly from the periphery of the tumor mass in each image stack. X and Y coordinates from each cell track were exported to Excel and translated such that each cell's track originated from a common origin (0,0). […] Mean-squared displacement for tracked cells in each group was analyzed using a persistent random-walk model (1,2). Speed (um/s) and persistence (min) were extracted using a non-linear least-squared regression to the model equation for each track and averaged for each treatment group."}, "08-387 GSCs": {"test_system": "08-387 GSCs", "assay": "Cytoskeleton Phospho Antibody Array", "format": "cell-based, human", "conditions": "200 nM; 7 hours", "method": "08-387 GSCs were enriched in G1 as described. Cells were then exposed to vehicle or ispinesib (200 nM) for 7 hours. Following treatment, cells were pelleted and snap frozen in liquid nitrogen before shipping to Full Moon Biosystems for processing to probe a Cytoskeleton Phospho Antibody Array containing 141 highly specific cytoskeleton related antibodies (Sunnyvale, Calif.)."}, "[4]": {"conditions": "Persistent Random Walk model fit"}}, "data": [{"smiles": "Cc1ccc(C(=O)N(CCCN)[C@@H](c2nc3cc(Cl)ccc3c(=O)n2Cc2ccccc2)C(C)C)cc1", "note": "[ispinesib, N-(3-amino-propyl)-n-[R-1-(3-benzyl-7-choloro-4-oxo-3,4-dihydroquinazolin-2-yl)-2-methyl-propyl]-4-methyl-benzamide methanesulfonate]", "values": [{"measurement": "median survival", "setting": "[1]; 10 mg/kg q4d×6 intraperitoneal", "value": 36, "unit": "days"}, {"measurement": "survival versus vehicle", "setting": "[1]; 10 mg/kg q4d×6 intraperitoneal, p<0.001", "value": "significant survival advantage"}, {"measurement": "mono-astral spindles in intracranial tumor", "setting": "[1]; single 10 mg/kg dose, tumor harvested 5 hours later", "value": "numerous cells with mono-astral spindles"}, {"measurement": "subG1 population (surrogate marker for apoptosis)", "setting": "matched GSCs and NSTCs [2]", "value": "higher subG1 fraction over NSTCs"}, {"measurement": "cell viability over five-day time course", "setting": "matched GSCs and NSTCs [3]", "value": "Both populations demonstrated sensitivity"}, {"measurement": "tumor dispersion (Wind Rose plots, MSD)", "setting": "GFP-positive tumor cells", "value": "clear reduction in tumor dispersion"}, {"measurement": "reduction in mean squared displacement", "setting": "GFP-positive tumor cells; versus control", "value": "approximately four-fold"}, {"measurement": "reduction of cell velocity", "setting": "GFP-positive tumor cells; versus control", "value": "approximately two-fold"}, {"measurement": "cell velocity", "setting": "GFP-positive tumor cells; [4]", "value": "11.3±0.2", "unit": "μm/hr"}, {"measurement": "persistence time", "setting": "GFP-positive tumor cells; [4]", "value": "2.3 ± 0.1", "unit": "h"}, {"measurement": "phosphorylation of 141 cytoskeleton proteins", "setting": "08-387 GSCs", "value": "no significant changes in phosphorylation"}]}]}
